This experiment addresses T1, LmrCD (Lactococcus cremoris, UniProt A2RI37+A2RI38).
T1 construct: gene lmrC
In words: malachite green ATPase assay. To be noted: 2 mM Mg-ATP; 0.05% DDM. In kind it is biochemical.

The structures appear in SMILES notation.

T1 sequence (A2RI38 entry or part of it): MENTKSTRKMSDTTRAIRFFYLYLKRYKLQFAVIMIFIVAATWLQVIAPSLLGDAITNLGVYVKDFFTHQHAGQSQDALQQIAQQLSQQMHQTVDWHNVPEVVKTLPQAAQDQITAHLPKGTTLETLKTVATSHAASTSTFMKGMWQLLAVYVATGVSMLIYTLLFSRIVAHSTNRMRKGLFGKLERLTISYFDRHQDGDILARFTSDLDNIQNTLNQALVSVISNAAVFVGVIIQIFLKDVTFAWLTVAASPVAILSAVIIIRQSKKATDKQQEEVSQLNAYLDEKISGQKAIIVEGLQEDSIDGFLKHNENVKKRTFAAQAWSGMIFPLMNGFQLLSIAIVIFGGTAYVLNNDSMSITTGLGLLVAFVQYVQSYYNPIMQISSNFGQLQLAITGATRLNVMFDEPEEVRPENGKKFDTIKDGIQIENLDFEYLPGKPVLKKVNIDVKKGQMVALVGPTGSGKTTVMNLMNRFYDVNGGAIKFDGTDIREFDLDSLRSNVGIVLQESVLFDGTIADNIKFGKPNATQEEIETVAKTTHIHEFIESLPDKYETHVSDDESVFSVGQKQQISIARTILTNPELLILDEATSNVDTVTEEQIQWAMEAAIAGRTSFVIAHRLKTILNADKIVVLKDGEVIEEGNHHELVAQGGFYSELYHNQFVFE
T1 sequence (A2RI37 entry or part of it): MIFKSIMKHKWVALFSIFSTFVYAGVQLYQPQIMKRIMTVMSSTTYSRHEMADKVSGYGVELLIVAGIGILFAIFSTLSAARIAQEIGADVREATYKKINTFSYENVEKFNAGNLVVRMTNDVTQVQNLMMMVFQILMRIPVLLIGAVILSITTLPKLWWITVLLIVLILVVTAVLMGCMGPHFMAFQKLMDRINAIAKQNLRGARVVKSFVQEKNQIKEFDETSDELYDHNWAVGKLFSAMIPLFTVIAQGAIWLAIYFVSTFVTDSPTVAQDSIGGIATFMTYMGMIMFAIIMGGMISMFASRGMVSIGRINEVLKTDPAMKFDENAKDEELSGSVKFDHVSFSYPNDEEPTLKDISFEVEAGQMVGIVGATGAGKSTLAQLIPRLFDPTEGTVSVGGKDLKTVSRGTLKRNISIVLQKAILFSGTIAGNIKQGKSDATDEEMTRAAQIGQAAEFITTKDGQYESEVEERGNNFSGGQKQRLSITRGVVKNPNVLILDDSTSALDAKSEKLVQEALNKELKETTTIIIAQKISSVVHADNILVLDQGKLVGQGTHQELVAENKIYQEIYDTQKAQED

With `Nc1ncnc2c1ncn2[C@@H]1O[C@H](COP(=O)(O)OP(=O)(O)OP(=O)(O)O)[C@@H](O)[C@H]1O` [ATP], the “malachite green ATPase assay” value was “the ATPase activity of the purified multidrug ABC transporter LmrCD from L. lactis”.
